Assay results reported in patent US20120129833A1, “CYCLIC KETOENOLS FOR THERAPY” (BAYER PHARMA AKTIENGESELLSCHAFT, priority 2010, published 2012).

Assays:
[1] = target: T1, recombinant human ACC1 (acetyl-CoA carboxylase 1) (Homo sapiens, UniProt Q13085); test: Human ACC1 enzyme assay (HTRF ADP detection); assay type: biochemical; conditions: 50 μM ATP, 20 μM acetyl-CoA, 15 min pre-incubation, 20 min at 22° C.; read-out: ACC 1 IC50;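 also: ADP by-product quantified by competitive HTRF immunoassay with europium cryptate anti-ADP antibody and d2-labelled ADP, read after 1 h binding at 22 °C, enzyme near 2.5 ng/µl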
T1 construct: NM_198834, amino acids 39—end; FLAG (C); made in house; host or cells: baculovirus-transfected insect cells (Hi5)
Description: The basic principle of the assay is the measurement of adenosine diphosphate (ADP), which is formed as a by-product, by means of an HTRF®-based competitive immunoassay (HTRF=Homogeneous Time Resolved Fluorescence).
The amount of complex of d2-labelled ADP and europium cryptate-labelled anti-ADP antibody was then determined by measuring the resonance energy transfer of europium cryptate to d2.

[2] = target: T2, ACC2 (acetyl-CoA carboxylase 2) (Homo sapiens, UniProt O00763); test: Human ACC2 enzyme assay (HTRF ADP detection); assay type: biochemical; conditions: 20 μM acetyl-CoA, 15 min pre-incubation, 20 min at 22° C.; read-out: ACC 2 IC50
T2 construct: catalogue no; 50201, amino acids 39—end, expressed in baculovirus-transfected Sf9 insect cells; His (C); purchased BPS Bioscience (San Diego, Calif.) 50201; host or cells: baculovirus-transfected Sf9 insect cells
T2 sequence (O00763 39-2458 limits assumed): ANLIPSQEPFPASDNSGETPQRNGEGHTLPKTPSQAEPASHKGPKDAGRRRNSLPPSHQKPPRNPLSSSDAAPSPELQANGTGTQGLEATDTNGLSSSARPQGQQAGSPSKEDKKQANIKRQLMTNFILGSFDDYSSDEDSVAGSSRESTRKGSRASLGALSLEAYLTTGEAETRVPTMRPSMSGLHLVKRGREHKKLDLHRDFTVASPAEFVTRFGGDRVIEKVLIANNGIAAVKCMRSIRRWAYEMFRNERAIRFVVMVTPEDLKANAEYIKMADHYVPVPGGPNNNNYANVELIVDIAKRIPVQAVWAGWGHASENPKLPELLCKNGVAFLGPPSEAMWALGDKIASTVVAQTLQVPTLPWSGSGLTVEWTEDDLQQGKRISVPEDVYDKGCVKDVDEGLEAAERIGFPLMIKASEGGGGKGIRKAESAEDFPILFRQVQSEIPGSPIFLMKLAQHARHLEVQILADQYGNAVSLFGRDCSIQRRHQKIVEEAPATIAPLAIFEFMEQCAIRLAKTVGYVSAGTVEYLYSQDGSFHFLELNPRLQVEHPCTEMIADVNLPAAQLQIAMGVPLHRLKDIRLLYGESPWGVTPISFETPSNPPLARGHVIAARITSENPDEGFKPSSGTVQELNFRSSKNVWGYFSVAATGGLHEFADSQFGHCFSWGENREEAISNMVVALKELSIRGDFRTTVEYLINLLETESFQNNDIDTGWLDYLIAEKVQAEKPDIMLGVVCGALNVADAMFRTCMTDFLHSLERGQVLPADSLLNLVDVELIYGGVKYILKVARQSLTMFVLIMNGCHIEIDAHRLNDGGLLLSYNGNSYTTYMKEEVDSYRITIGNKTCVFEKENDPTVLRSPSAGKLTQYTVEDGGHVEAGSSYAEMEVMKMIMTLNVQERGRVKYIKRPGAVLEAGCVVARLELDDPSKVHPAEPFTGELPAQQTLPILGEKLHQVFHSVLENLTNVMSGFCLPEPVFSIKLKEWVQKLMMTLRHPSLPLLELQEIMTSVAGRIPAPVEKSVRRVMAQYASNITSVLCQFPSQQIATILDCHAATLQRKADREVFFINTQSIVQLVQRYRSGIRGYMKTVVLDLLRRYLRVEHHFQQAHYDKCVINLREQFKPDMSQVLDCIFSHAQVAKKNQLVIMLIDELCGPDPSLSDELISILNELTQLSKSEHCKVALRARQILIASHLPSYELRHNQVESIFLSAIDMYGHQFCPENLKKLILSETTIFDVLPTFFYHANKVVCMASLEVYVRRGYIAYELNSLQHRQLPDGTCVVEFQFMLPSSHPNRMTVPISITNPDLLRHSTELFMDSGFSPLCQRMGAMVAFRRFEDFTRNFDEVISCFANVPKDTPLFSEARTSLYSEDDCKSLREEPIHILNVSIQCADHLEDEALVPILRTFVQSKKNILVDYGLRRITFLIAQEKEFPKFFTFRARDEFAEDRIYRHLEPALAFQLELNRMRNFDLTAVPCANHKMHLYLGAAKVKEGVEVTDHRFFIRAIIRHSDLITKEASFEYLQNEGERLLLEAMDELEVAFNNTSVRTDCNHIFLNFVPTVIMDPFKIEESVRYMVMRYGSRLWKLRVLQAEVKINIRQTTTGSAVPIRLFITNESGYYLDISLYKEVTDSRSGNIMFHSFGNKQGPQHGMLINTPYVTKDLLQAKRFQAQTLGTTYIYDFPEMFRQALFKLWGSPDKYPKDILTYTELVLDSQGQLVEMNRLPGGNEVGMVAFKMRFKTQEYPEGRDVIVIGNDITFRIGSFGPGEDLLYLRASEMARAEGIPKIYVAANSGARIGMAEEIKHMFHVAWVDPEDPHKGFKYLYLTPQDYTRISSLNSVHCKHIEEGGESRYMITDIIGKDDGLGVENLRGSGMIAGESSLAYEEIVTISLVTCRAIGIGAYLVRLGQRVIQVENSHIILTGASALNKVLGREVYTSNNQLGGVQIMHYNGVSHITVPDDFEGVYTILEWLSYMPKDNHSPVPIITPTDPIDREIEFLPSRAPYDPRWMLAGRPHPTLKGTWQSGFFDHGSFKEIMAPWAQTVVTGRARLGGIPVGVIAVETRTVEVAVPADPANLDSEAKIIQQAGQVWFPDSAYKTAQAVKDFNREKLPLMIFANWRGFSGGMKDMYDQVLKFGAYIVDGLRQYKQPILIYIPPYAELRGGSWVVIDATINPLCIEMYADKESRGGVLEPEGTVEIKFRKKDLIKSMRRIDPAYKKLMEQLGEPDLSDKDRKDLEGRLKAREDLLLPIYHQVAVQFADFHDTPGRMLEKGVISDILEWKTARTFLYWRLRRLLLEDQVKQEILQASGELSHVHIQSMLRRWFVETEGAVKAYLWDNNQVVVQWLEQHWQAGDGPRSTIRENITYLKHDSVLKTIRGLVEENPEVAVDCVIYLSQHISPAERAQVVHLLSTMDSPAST

Row | Structure (SMILES) | IC50 [1] | IC50 [2]
1 | Cc1ccc(-c2ccc(Cl)cc2)cc1C1=C(O)C2(CCC3(CC2)OCC(C)O3)NC1=O (stereo not drawn) [Example 1-63, 11-(4′-chloro-4-methylbiphenyl-3-yl)-12-hydroxy-2-methyl-1,4-dioxa-9-azadispiro[4.2.4.2]tetradec-11-en-10-one] | 391 nM | 4220 nM
2 | COCCC1(C)NC(=O)C(c2cc(-c3ccc(Cl)cc3)ccc2C)=C1O (stereo not drawn) [Example 1-47, 3-(4′-chloro-4-methylbiphenyl-3-yl)-4-hydroxy-5-(2-methoxyethyl)-5-methyl-1,5-dihydro-2H-pyrrol-2-one] | 923 nM | > 20000 nM
3 | CCOC1CCC2(CC1)NC(=O)C(c1cc(-c3cccc(Cl)c3)ccc1C)=C2O (stereo not drawn) [Example 1-79, 3-(3′-chloro-4-methylbiphenyl-3-yl)-8-ethoxy-4-hydroxy-1-azaspiro[4.5]dec-3-en-2-one] | 848 nM | > 20000 nM
4 | O=C1N[C@]2(CC[C@@H](OCC(F)(F)F)CC2)C(O)=C1c1cc(-c2ccc(Cl)cc2)ccc1Cl [Example 1-29, (5s,8s)-3-(4,4′-dichlorobiphenyl-3-yl)-4-hydroxy-8-(2,2,2-trifluoroethoxy)-1-azaspiro[4.5]dec-3-en-2-one] | 270 nM | 1900 nM
5 | Cc1cc(C)c(-c2ccc(Cl)cc2)c(C)c1C1=C(O)[C@]2(CC[C@@]3(CCCO3)CC2)OC1=O [Example 2-31, (5r,8s)-3-(4′-chloro-2,4,6-trimethylbiphenyl-3-yl)-4-hydroxy-1,9-dioxadispiro[4.2.4.2]tetradec-3-en-2-one] | 880 nM | 48 nM
6 | Cc1ccc(-c2ccc(Cl)cc2)cc1C1=C(O)C(C)(C)C(C)(C)OC1=O [Example 10-2, 3-(4′-chloro-4-methylbiphenyl-3-yl)-4-hydroxy-5,5,6,6-tetramethyl-5,6-dihydro-2H-pyran-2-one] | 586 nM | > 20000 nM
7 | CCOC1CCCC2(C1)NC(=O)C(c1c(C)ccc(-c3ccc(Cl)cc3)c1C)=C2O (stereo not drawn) [Example 1-73, 3-(4′-chloro-2,4-dimethylbiphenyl-3-yl)-7-ethoxy-4-hydroxy-1-azaspiro[4.5]dec-3-en-2-one] | 912 nM | 4970 nM
8 | CCOCCO[C@@H]1CC[C@@]2(C1)NC(=O)C(c1cc(-c3ccc(Cl)cc3)ccc1C)=C2O (relative stereo) [Example 1-50, rel-(5R,7S)-3-(4′-chloro-4-methylbiphenyl-3-yl)-7-(2-ethoxyethoxy)-4-hydroxy-1-azaspiro[4.4]non-3-en-2-one] | 472 nM | 6270 nM
9 | CO[C@H]1CC[C@]2(CC1)NC(=O)C(c1cc(-c3ccc(Cl)cc3)ccc1C)=C2O [Example 1-2, (5s,8s)-3-(4′-chloro-4-methylbiphenyl-3-yl)-4-hydroxy-8-methoxy-1-azaspiro[4.5]dec-3-en-2-one] | […] | 370 nM
10 | Cc1ccc(-c2ccc(Cl)cc2)cc1C1=C(O)C2(CCCCCC2)NC1=O [Example 1-26, 3-(4′-chloro-4-methylbiphenyl-3-yl)-4-hydroxy-1-azaspiro[4.6]undec-3-en-2-one] | 540 nM | 1250 nM
11 | Cc1ccc(-c2cccc(Cl)c2)cc1C1=C(O)C2(CCCCCC2)OC1=O [Example 2-50, 3-(3′-chloro-4-methylbiphenyl-3-yl)-4-hydroxy-1-oxaspiro[4.6]undec-3-en-2-one] | 903 nM | 8590 nM
12 | COC1CCC2(C1)NC(=O)C(c1c(C)ccc(-c3ccc(Cl)cc3)c1C)=C2O (stereo not drawn) [Example 1-48, 3-(4′-chloro-2,4-dimethylbiphenyl-3-yl)-4-hydroxy-7-methoxy-1-azaspiro[4.4]non-3-en-2-one] | 1010 nM | 8600 nM
13 | Cc1ccc(-c2ccc(Cl)cc2)cc1C1=C(O)[C@@]2(CC[C@H](OCC(C)C)C2)NC1=O (relative stereo) [Example 1-49, rel-(5R,7R)-3-(4′-chloro-4-methylbiphenyl-3-yl)-4-hydroxy-7-(2-methylpropoxy)-1-azaspiro[4.4]non-3-en-2-one] | 240 nM | 9900 nM
14 | Cc1ccc(-c2ccc(C)c(C3=C(O)C4(CCOCC4)NC3=O)c2)cc1 [Example 1-15, 3-(4,4′-dimethylbiphenyl-3-yl)-4-hydroxy-8-oxa-1-azaspiro[4.5]dec-3-en-2-one] | 742 nM | > 20000 nM
15 | Cc1ccc(-c2ccc(Cl)cc2)cc1C1=C(O)C2(CCC(OCC(F)(F)F)CC2)NC1=O (stereo not drawn) [Example 1-33, 3-(4′-chloro-4-methylbiphenyl-3-yl)-4-hydroxy-8-(2,2,2-trifluoroethoxy)-1-azaspiro[4.5]dec-3-en-2-one] | 359 nM | 535 nM
16 | Cc1ccc(-c2ccc(Cl)cc2)cc1C1=C(O)C2(CCC3(CC2)OCCCO3)NC1=O [Example 1-59, 3-(4′-chloro-4-methylbiphenyl-3-yl)-4-hydroxy-9,13-dioxa-1-azadispiro[4.2.5.2]pentadec-3-en-2-one] | 427 nM | 5200 nM
17 | COCCC1CCC2(CC1)NC(=O)C(c1c(C)ccc(-c3ccc(Cl)cc3)c1C)=C2O (stereo not drawn) [Example 1-57, 3-(4′-chloro-2,4-dimethylbiphenyl-3-yl)-4-hydroxy-8-(2-methoxyethyl)-1-azaspiro[4.5]dec-3-en-2-one] | 790 nM | 220 nM
18 | Cc1ccc(-c2ccc(Cl)cc2)cc1C1=C(O)CC(C)(C)CC1=O [Example 7-5, 2-(4′-chloro-4-methylbiphenyl-3-yl)-3-hydroxy-5,5-dimethylcyclohex-2-en-1-one] | 610 nM | > 20000 nM
19 | Cc1ccc(-c2ccc(Cl)cc2)cc1C1=C(O)CN(C(C)C)C1=O [Example 1-17, 3-(4′-chloro-4-methylbiphenyl-3-yl)-4-hydroxy-1-(propan-2-yl)-1,5-dihydro-2H-pyrrol-2-one] | 334 nM | 4020 nM
20 | O=C1NC2(CCOCC2)C(O)=C1c1cc(-c2cc(F)c(F)c(F)c2)ccc1Cl [Example 1-38, 3-(4-chloro-3′,4′,5′-trifluorobiphenyl-3-yl)-4-hydroxy-8-oxa-1-azaspiro[4.5]dec-3-en-2-one] | 497 nM | > 20000 nM
21 | Cc1ccc(-c2cc(F)c(F)c(F)c2)cc1C1=C(O)C2(CCOCC2)NC1=O [Example 1-36, 4-hydroxy-3-(3′,4′,5′-trifluoro-4-methylbiphenyl-3-yl)-8-oxa-1-azaspiro[4.5]dec-3-en-2-one] | 792 nM | > 20000 nM
22 | Cc1ccc(-c2ccc(Cl)cc2)cc1C1=C(O)C2(CCOCC2)NC1=O [Example 1-6, 3-(4′-chloro-4-methylbiphenyl-3-yl)-4-hydroxy-8-oxa-1-azaspiro[4.5]dec-3-en-2-one] | 300 nM | 5200 nM
23 | Cc1ccc(-c2ccc(C(F)(F)F)cc2)cc1C1=C(O)C2(CCCCC2)NC1=O [Example 1-12, 4-hydroxy-3-[4-methyl-4′-(trifluoromethyl)biphenyl-3-yl]-1-azaspiro[4.5]dec-3-en-2-one] | 772 nM | 18200 nM

Other lines, results leading:

Row | IC50 [1] | IC50 [2] | Structure (SMILES)
24 | 321 nM | 789 nM | Cc1ccc(-c2ccc(Cl)cc2)cc1C1=C(O)C2(CCC3(CCCO3)CC2)OC1=O (stereo not drawn) [Example 2-29, 3-(4′-chloro-4-methylbiphenyl-3-yl)-4-hydroxy-1,9-dioxadispiro[4.2.4.2]tetradec-3-en-2-one]
25 | 587 nM | > 20000 nM | Cc1ccc(-c2ccc(Cl)cc2)cc1C1C(=O)N2CC(C)(F)CN2C1=O [Example 8-12, 2-(4′-chloro-4-methylbiphenyl-3-yl)-6-fluoro-6-methyldihydro-1H,5H-pyrazolo[1,2-a]pyrazole-1,3(2H)-dione]
26 | 666 nM | 1550 nM | COC1CCCC2(C1)OC(=O)C(c1cc(-c3ccc(Cl)cc3)c(C)cc1C)=C2O (stereo not drawn) [Example 2-11, 3-(4′-chloro-4,6-dimethylbiphenyl-3-yl)-4-hydroxy-7-methoxy-1-oxaspiro[4.5]dec-3-en-2-one]
27 | 1060 nM | 4280 nM | Cc1ccc(-c2ccc(Cl)cc2)cc1C1=C(O)C2(CCCCC2)CNC1=O [Example 9-3, 4-(4′-chloro-4-methylbiphenyl-3-yl)-5-hydroxy-2-azaspiro[5.5]undec-4-en-3-one]
28 | 923 nM | 783 nM | CCCC1CCC2(CC1)CC(=O)C(c1cc(-c3ccc(Cl)cc3)ccc1C)=C2O (stereo not drawn) [Example 6-6, 3-(4′-chloro-4-methylbiphenyl-3-yl)-4-hydroxy-8-propylspiro[4.5]dec-3-en-2-one]
29 | 791 nM | 4220 nM | Cc1cc(C)c(-c2ccc(Cl)cc2)cc1C1=C(O)C2(CCOCC2)OC1=O [Example 2-41, 3-(4′-chloro-4,6-dimethylbiphenyl-3-yl)-4-hydroxy-1,8-dioxaspiro[4.5]dec-3-en-2-one]
30 | 329 nM | 5560 nM | O=c1[nH]c2cc(Cl)ccc2c(O)c1-c1cc(-c2ccc(Cl)cc2)ccc1Cl [Example 9-13, 7-chloro-3-(4,4′-dichlorobiphenyl-3-yl)-4-hydroxyquinolin-2(1H)-one]
31 | 997 nM | > 20000 nM | O=C1OC2(CCCC2)C(O)=C1c1cc(-c2cc(F)c(F)c(F)c2)ccc1Cl [Example 2-24, 3-(4-chloro-3′,4′,5′-trifluorobiphenyl-3-yl)-4-hydroxy-1-oxaspiro[4.4]non-3-en-2-one]
32 | 418 nM | > 20000 nM | Cc1ccc(-c2ccc(Cl)cc2)cc1-c1c(O)c2ccc(F)cc2[nH]c1=O [Example 9-8, 3-(4′-chloro-4-methylbiphenyl-3-yl)-7-fluoro-4-hydroxyquinolin-2(1H)-one]
33 | 140 nM | 2500 nM | Cc1ccc(-c2ccc(F)cc2)cc1C1=C(O)[C@]2(CC[C@@]3(CCCO3)CC2)OC1=O [Example 2-28, (5r,8s)-3-(4′-fluoro-4-methylbiphenyl-3-yl)-4-hydroxy-1,9-dioxadispiro[4.2.4.2]tetradec-3-en-2-one]
